In assay [1] the test system is Type IV pigmented epidermal equivalents (human melanocytes and keratinocytes); tyrosinase activity / melanin deposition. The assay is described as follows: Pigmentation in pigmented epidermal equivalents (DOPA and F&M staining). It is filed as cell-based. Conditions: for Overall Score (change of pigmentation by DOPA and F&M staining) / Score DOPA staining (tyrosinase activity) / Score F&M staining (Pigment deposition): 0.1% (w/v) in PBS, treated three or five days, type IV epidermal equivalents. The method, then: Copper PCA (Barnet Products Corp., Englewood cliffs, N.J.) was tested for its ability to induce pigmentation in pigmented epidermal equivalents. The pigmented epidermal equivalents contained human normal melanocytes, together with normal, human-derived epidermal keratinocytes, which have been cultured to form a multi-layered, highly differentiated model of the human epidermis. Type IV pigmented epidermal equivalents (consisting of normal human keratinocytes pooled from variety of phototype skins and normal human melanocytes derived from type IV phototype skin) were treated with test compounds for three or five days and samples were harvested on the fourth or sixth day of the study. The harvested equivalents were stained with DOPA (a substrate for tyrosinase) or with Fontana-Mason (F&M) (Sheenan DC, Hrapckak BB, eds: Theory and practice of Histo-Thchnology (St Louis: CV Mosby, 1980) pp 223-277). F&M staining identifies silver nitrate reducing activity, which, in skin, identifies melanin.
The epidermal equivalents used were SkinEthic® reconstructed human epidermis from SkinEthic™ Laboratory (Nice, France). UV irradiation was performed with a UVB FS light source in an exposure chamber, with plate covers removed and Phosphate-buffered saline (PBS, from Gibco-BRL, Gaithersburg, Md.) present in the lower chamber. UVB intensity was measured with a UVX radiometer (UVP Inc., San Gabriel, Ca.). Equivalents were treated with 0.1-0.12 J/cm2. […] The copper PCA and tyrosine were dissolved in PBS.
On the fourth or sixth day of the study, the equivalents were fixed, sectioned and F&M stained, or they were DOPA stained as whole without sectioning, using standard techniques. At least three sections per equivalent, three equivalents per experiment were processed. Each experiment was repeated three times. DOPA-stained epidermal equivalents were evaluated for the change in tyrosinase activity. F&M-stained histological sections were evaluated for the change in pigment deposition. Due to the low content of melanin within the type IV epidermal equivalent, it was not possible to quantify the level of pigment within melanocytes in F&M stained sections by image analysis. Therefore, the pigment change was evaluated using the scale defined below in Table 1.
Table 2 represents the overall score in change of pigmentation, as evaluated by DOPA and F&M staining, as set forth above, when equivalents were exposed to Copper PCA (0.1% (w/v)) and/or tyrosine (0.1% (w/v)) or UVB irradiation (0.10J/cm^2).

Assay [2] has as its system skin of Yucatan microswine. Briefly: Pigment deposition in swine skin in vivo (F&M histology of biopsies). Conditions: for pigment deposition in swine skin (in words): topical, in vivo, histological analysis. The source says:
Dark skinned Yucatan microswine (Charles River, Portland, Me.) were housed in appropriately sized cages in an environmentally controlled room with a 12-hour light—12-hour dark photoperiod and supplied with food and water ad libi tum. Twenty μl of test materials were applied topically, twice a day, five days/week, for eight or nine weeks, on the dorsum of the swine. Treatments of individual swine were always arranged in a head to tail order on one side, and in a tail to head order on the other side of the animal. Biopsies were taken using standard techniques.
Swine were treated with either 0.5% w(w/v) of the copper PCA and/or tyrosine or ultraviolet-B radiation (as a positive control). The copper PCA and tyrosine were dissolved in ethanol: propylene glycol 70:30 (v/v). A […] erythema dose (MED) of UVB was determined by placing a plastic template with 1×1 inch^2 cutouts on the dorsum of the swine. Using a UVB lamp (Model UVM-57, 302 nm lamp, UVP Inc., Upland, Calif.) placed on the template, sites were exposed to UVB with increasing time points, every other day for five days. Unexposed sites were covered with the same material as the template. One MED was established as the dose that produces the least amount of visible erythema. Swine were exposed to one MED, once per day, on three alternate days (Mon, Wed, Fri).
Following eight weeks of treatment, skin biopsies were taken using standard methods, for pigment deposition analysis. Sections from the skin biopsies were stained with Hematoxylin and Eosin (H&E), or with Fontana-Mason (F&M), using standard procedures (Sheenan DC, Hrapckak BB, eds., Theory and Practice of Histo-Technology (The C. V. Mosby Co., St. Louis (1980) pp. 223-277). At least three sections per biopsy were processed. Each experiment was repeated at least two times.
Table 4 represents the average value of all sites of responsive swine treated with each test material. The scale for evaluation is defined in Table 3.

For `O=C1CC[C@@H](C(=O)[O-])N1.O=C1CC[C@@H](C(=O)[O-])N1.[Cu+2]` [Copper PCA], in assay [1], the “Overall Score (change of pigmentation by DOPA and F&M staining)” value is on record as 1-2; the “Score DOPA staining (tyrosinase activity)” value is 1-2; the “Score F&M staining (Pigment deposition)” value is given as 1-2. Also, in assay [1] (in vitro), the “tyrosinase activity in human pigmented epidermal equivalents (in words)” value is “significantly increases”. Moreover, the “Score (pigment deposition, capped epidermal cells)” value in assay [2] (0.5% (w/v) topical, twice a day, five days/week, eight weeks, average of all sites of responsive swine) was 2-3. The “pigment deposition in swine skin (in words)” value in assay [2] is “enhanced pigment deposition”. The “pigment deposition in swine skin (in words)” value in assay [2] (listed as copper PCA) is “significantly increases”.
As to `N[C@@H](Cc1ccc(O)cc1)C(=O)O` [Tyrosine, tyrosine], in assay [1], the “Overall Score (change of pigmentation by DOPA and F&M staining)” value is on record as 0-2; the “Score DOPA staining (tyrosinase activity)” value is 1-2; the “Score F&M staining (Pigment deposition)” value was 0-1.

The values above are taken from patent publication US20040086471A1, “Compositions for darkening the skin and/or hair” (priority 2002, published 2004).
